Columns and labels:
BaF3 [1] = experiment: Antiproliferative activity against mouse BaF3 cells expressing wildtype rearranged during transfection kinase-CCDC6 incubated for 74 to 76 hrs by cell counting kit 8 method
BaF3 [2] = experiment: Antiproliferative activity against mouse BaF3 cells expressing rearranged during transfection kinase V804M-CCDC6 incubated for 74 to 76 hrs by cell counting kit 8 method
BaF3 [3] = experiment: Antiproliferative activity against mouse BaF3 cells expressing rearranged during transfection kinase G810C-CCDC6 incubated for 74 to 76 hrs by cell counting kit 8 method
BaF3 [4] = experiment: Antiproliferative activity against mouse BaF3 cells expressing rearranged during transfection kinase G810R-CCDC6 incubated for 74 to 76 hrs by cell counting kit 8 method
BaF3 [5] = experiment: Antiproliferative activity against mouse BaF3 cells incubated for 74 to 76 hrs by cell counting kit 8 method; assay type: functional, cell-based
BaF3 [6] = experiment: Antiproliferative activity against mouse BaF3 cells expressing wildtype rearranged during transfection kinase-KIF5B incubated for 74 to 76 hrs by cell counting kit 8 method
BaF3 [7] = experiment: Antiproliferative activity against mouse BaF3 cells expressing rearranged during transfection kinase V804M-KIF5B incubated for 74 to 76 hrs by cell counting kit 8 method
BaF3 [8] = experiment: Antiproliferative activity against mouse BaF3 cells expressing rearranged during transfection kinase V804L-KIF5B incubated for 74 to 76 hrs by cell counting kit 8 method
BaF3 [9] = experiment: Antiproliferative activity against mouse BaF3 cells expressing rearranged during transfection kinase V804L-G810C incubated for 74 to 76 hrs by cell counting kit 8 method
BaF3 [10] = experiment: Antiproliferative activity against mouse BaF3 cells expressing rearranged during transfection kinase V804L-G810S incubated for 74 to 76 hrs by cell counting kit 8 method
BaF3 [11] = experiment: Antiproliferative activity against mouse BaF3 cells expressing rearranged during transfection kinase V804L-G810R incubated for 74 to 76 hrs by cell counting kit 8 method
[12] = target: Proto-oncogene tyrosine-protein kinase receptor Ret (Homo sapiens, UniProt P07949); experiment: Inhibition of wild type rearranged during transfection kinase (unknown origin) preincubated for 1 hr followed by addition of development agent incubated for 1 hr measured by FRET-based Z'-Lyte assay
Sequence of Proto-oncogene tyrosine-protein kinase receptor Ret (P07949 whole entry): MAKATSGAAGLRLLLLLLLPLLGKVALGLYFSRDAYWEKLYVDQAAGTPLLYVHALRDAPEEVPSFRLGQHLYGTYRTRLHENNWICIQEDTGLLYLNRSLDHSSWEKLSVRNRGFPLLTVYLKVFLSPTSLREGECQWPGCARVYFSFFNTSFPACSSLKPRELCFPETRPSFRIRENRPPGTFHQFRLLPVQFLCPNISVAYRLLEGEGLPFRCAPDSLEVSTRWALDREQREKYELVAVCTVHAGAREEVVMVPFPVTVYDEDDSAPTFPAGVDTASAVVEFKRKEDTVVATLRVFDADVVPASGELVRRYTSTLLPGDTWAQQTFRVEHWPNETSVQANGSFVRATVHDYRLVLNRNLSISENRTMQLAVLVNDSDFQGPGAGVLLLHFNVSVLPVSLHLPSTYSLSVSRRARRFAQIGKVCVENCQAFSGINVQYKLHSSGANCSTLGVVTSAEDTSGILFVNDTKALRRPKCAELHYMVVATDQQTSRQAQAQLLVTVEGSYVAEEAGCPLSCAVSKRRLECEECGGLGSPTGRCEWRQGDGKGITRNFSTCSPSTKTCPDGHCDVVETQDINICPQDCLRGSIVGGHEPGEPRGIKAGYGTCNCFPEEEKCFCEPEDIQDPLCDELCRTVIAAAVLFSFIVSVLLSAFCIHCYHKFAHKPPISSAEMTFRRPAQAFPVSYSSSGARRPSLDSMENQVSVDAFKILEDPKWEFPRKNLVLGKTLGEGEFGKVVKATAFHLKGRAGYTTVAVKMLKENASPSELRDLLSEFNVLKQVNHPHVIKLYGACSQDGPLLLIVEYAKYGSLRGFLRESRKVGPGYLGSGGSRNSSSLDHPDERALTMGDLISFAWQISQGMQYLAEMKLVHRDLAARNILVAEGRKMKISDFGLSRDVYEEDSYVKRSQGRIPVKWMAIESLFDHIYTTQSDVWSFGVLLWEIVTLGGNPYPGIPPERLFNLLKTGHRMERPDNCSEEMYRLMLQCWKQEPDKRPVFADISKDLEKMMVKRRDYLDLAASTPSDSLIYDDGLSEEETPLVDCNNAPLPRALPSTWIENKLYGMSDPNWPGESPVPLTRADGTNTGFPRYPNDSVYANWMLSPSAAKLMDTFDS

Row | SMILES | IC50 (BaF3 [1]) [nM] | IC50 (BaF3 [2]) [nM] | IC50 (BaF3 [3]) [nM] | IC50 (BaF3 [4]) [nM] | IC50 (BaF3 [5]) [nM] | IC50 (BaF3 [6]) [nM] | IC50 (BaF3 [7]) [nM] | IC50 (BaF3 [8]) [nM] | IC50 (BaF3 [9]) [nM] | IC50 (BaF3 [10]) [nM] | IC50 (BaF3 [11]) [nM] | IC50 [12] [nM]
1 | COc1cc2nccc(Oc3ccc(Nc4nn(C)cc4C(=O)NOCc4ccccc4)cc3)c2cc1C(N)=O | 410 | 732 | > 10000 | 4940 | > 10000 |  |  |  |  |  |  | 
2 | CNC(=O)c1cc2c(Oc3ccc(Nc4nn(C)cc4C(=O)NC45CC6CC(CC(C6)C4)C5)cc3F)ccnc2cc1OC | 13.8 | 61.5 | 122 | 192 | > 10000 |  |  |  |  |  |  | 
3 | COc1cc2nccc(Oc3ccc(Nc4nn(C)cc4C(=O)NC45CC6CC(CC(C6)C4)C5)c(C#N)c3)c2cc1C(N)=O | 18.8 | 70.3 | 148 | 230 | 9770 |  |  |  |  |  |  | 
4 | COc1cc2nccc(Oc3ccc(Nc4nn(C)cc4C(=O)NCc4ccccc4)cc3)c2cc1C(N)=O | 2180 | 1120 | 8540 | 9080 | > 10000 |  |  |  |  |  |  | 
5 | COc1cc2nccc(Oc3ccc(Nc4nn(C)cc4C(=O)NCC4CCCCC4)cc3)c2cc1C(N)=O | 281 | 888 | 1260 | 3620 | > 10000 |  |  |  |  |  |  | 
6 | CO[C@]1(C(=O)N[C@@H](C)c2ccc(-n3cc(F)cn3)nc2)CC[C@H](c2nc(C)cc(Nc3cc(C)[nH]n3)n2)CC1 [PRALSETINIB] | 4.4 | 3.5 | > 261 | 575 | 1170 | 5.7 | 9.2 | 4.1 | 215 | 21.7 | 241 | 
7 | COc1cc2nccc(Oc3ccc(Nc4nn(C)cc4C(=O)NC45CC6CC(CC(C6)C4)C5)c(Cl)c3)c2cc1C(N)=O | 7.8 | 53.4 | 29.4 | 137 | > 10000 |  |  |  |  |  |  | 
8 | COc1cc2nccc(Oc3ccc(Nc4nn(C)cc4C(=O)Nc4ccccc4)cc3)c2cc1C(N)=O | 2260 | 1720 | > 10000 | > 10000 | > 10000 |  |  |  |  |  |  | 
9 | COc1cc2nccc(Oc3ccc(Nc4nn(C)cc4C(=O)NC45CC6CC(CC(C6)C4)C5)cc3F)c2cc1C(N)=O | 179 | 1360 | 1000 | 1640 | > 10000 |  |  |  |  |  |  | 
10 | COc1cc2nccc(Oc3ccc(Nc4nn(C)cc4C(=O)N4CCCC5CCCCC54)cc3)c2cc1C(N)=O (stereo unspecified) | 2980 | 903 | 3770 | 1700 | 4330 |  |  |  |  |  |  | > 10000
11 | COc1cc2nccc(Oc3ccc(Nc4nn(C)cc4C(=O)NC45CC6CC(CC(C6)C4)C5)cc3)c2cc1C(N)=O | 8.7 | 60.8 | 99.9 | 285 | > 10000 |  |  |  |  |  |  | 
12 | COc1ccc(CN2C3CC2CN(c2ccc(-c4cc(OCC(C)(C)O)cn5ncc(C#N)c45)cn2)C3)cn1 [SELPERCATINIB] | 7.4 | 17.4 | 472 | 1100 | > 10000 | 10.6 | 72 | 37.8 | 1240 | 253 | 4340 | 
13 | COc1cc2nccc(Oc3ccc(Nc4nn(C)cc4C(=O)N4CCCCC4)cc3)c2cc1C(N)=O | 3060 | 3780 | 5760 | 3520 | 5650 |  |  |  |  |  |  | > 10000
14 | COc1cc(Oc2ccnc3cc(OC)c(C(N)=O)cc23)ccc1Nc1nn(C)cc1C(=O)NC12CC3CC(CC(C3)C1)C2 | 21.6 | 141 | 349 | 591 |  |  |  |  |  |  |  | 
15 | COc1cc2nccc(Oc3ccc(Nc4nn(C)cc4C(=O)Nc4ccccc4F)cc3)c2cc1C(N)=O | > 10000 | 1860 | > 10000 | 1200 | 1710 |  |  |  |  |  |  | > 10000
16 | COc1cc2nccc(Oc3ccc(Nc4nn(C)cc4C(=O)NC45CC6CC(CC(C6)C4)C5)cc3F)c2cc1C#N | 142 | 1620 | 659 | 1290 | > 10000 |  |  |  |  |  |  | 
17 | COc1cc2nccc(Oc3ccc(Nc4nn(C)cc4C(=O)NC4CCCCCCC4)cc3)c2cc1C(N)=O | 12.5 | 171 | 95.3 | 523 | 3210 |  |  |  |  |  |  | 
18 | COc1cc2nccc(Oc3ccc(Nc4nn(C)cc4C(=O)Nc4cccc(F)c4)cc3)c2cc1C(N)=O | 1560 | 3270 | 8520 | 3440 | 4480 |  |  |  |  |  |  | > 10000
19 | Cn1cc(C(=O)NC23CC4CC(CC(C4)C2)C3)c(Nc2ccc(Oc3ccnc4cc(OCCN5CCOCC5)c(C(N)=O)cc34)c(F)c2)n1 | 11.2 | 29.7 | 233 | 534 | > 10000 |  |  |  |  |  |  | 
20 | COc1cc2nccc(Oc3ccc(Nc4nn(C)cc4C(=O)NC4CCCC4)cc3)c2cc1C(N)=O | 153 | 1030 | 3610 | 7280 | > 10000 |  |  |  |  |  |  | 
21 | COc1cc2nccc(Oc3ccc(Nc4nn(C)cc4C(=O)Nc4ccc(F)cc4)cc3)c2cc1C(N)=O | 2980 | 3020 | 5190 | 2900 | 3060 |  |  |  |  |  |  | > 10000
22 | COc1cc2nccc(Oc3ccc(Nc4nn(C)cc4C(=O)NC45CCC(CC4)CC5)cc3)c2cc1C(N)=O | 13.9 | 161 | 329 | 263 | > 10000 |  |  |  |  |  |  | 
23 | COc1cc2nccc(Oc3ccc(Nc4nn(C)cc4C(=O)NCC(C)C)cc3)c2cc1C(N)=O | 206 | 2080 | 2280 | 2050 | > 10000 |  |  |  |  |  |  | 
24 | Cn1cc(C(=O)NC23CC4CC(CC(C4)C2)C3)c(Nc2ccc(Oc3ccnc4cc(OCCCN5CCOCC5)c(C(N)=O)cc34)c(F)c2)n1 | 5.1 | 7 | 363 | 329 | 1360 |  |  |  |  |  |  | 
25 | COc1cc2nccc(Oc3ccc(Nc4nn(C)cc4C(=O)NC45CC6CC(CC(C6)C4)C5)c(C)c3)c2cc1C(N)=O | 11.8 | 62.2 | 66.1 | 464 | > 10000 |  |  |  |  |  |  | 
26 | COc1cc2nccc(Oc3ccc(Nc4nn(C)cc4C(=O)NC4CCCCC4)cc3)c2cc1C(N)=O | 24 | 235 | 442 | 582 | 4800 |  |  |  |  |  |  | 
27 | COc1cc2nccc(Oc3ccc(Nc4nn(C)cc4C(=O)NCC4CCCO4)cc3)c2cc1C(N)=O (stereo unspecified) | 1160 | 6910 | 9510 | 9680 | > 10000 |  |  |  |  |  |  | 
